Test results reported in paper PMC10827914 (Cellular and Molecular Life Sciences: CMLS, 2024).
“And” between values parts separate entries of the source, which are not always exact repeats. Identical values can stand only once. “Also recorded” adds a separate entry of the source. Where a SMILES comes first, the peptide text is derived from it. Bridges are numbered along the chain shown (N, C = ends). Where no end group is shown, it is not given here.

Legend:
[1] = tested on: WEHI-164 fibrosarcoma; assay: Antitumor activity in WEHI-164 fibrosarcoma-bearing mice; assay type: in vivo
Procedure: Female BALB/c mice (Charles River Laboratories, Calco, Italy), weighing 16–18 g, were subcutaneously injected into the left flank of 10^6 WEHI-164 cells (ATCC, cat. CRL-1751, Lot. 63,682,839). Dose-finding experiments were performed with groups of six mice treated with G4-TNF (4, 20, or 100 pg/dose in 100 μL of 0.9% sodium chloride containing 100 µg/ml HSA, intraperitoneally injected on day 5) or vehicle. Tumor growth was monitored daily by measuring tumor volume with calipers, as previously described. The animals were sacrificed before the tumor diameter reached 1.0–1.5 cm. To test whether the antitumor activity of G4-TNF was mediated by CD13, tumor-bearing mice (6 animals/group) were treated with a single injection of G4-TNF (100 pg/dose, i.p.) in combination with peptide CNGRC (100 µg/dose) or anti-CD13 mAb R3-63 (25 µg/dose, given 1.5 h i.p. before administration of G4-TNF) 5 days after tumor implantation.
Fig. 3 Effect of G4-TNF on tumor growth and body weight of mice bearing WEHI-164 fibrosarcomas. A Mice bearing subcutaneous WEHI-164 tumors (5–6 mice/groups) were treated 5 days after tumor implantation with a single intraperitoneal injection of G4-TNF (0, 4, 20, or 100 pg). Tumor volume and body weight after treatment were monitored daily. B Effect of mAb R3-63 (anti-murine CD13 antibody, 25 µg) and CNGRC peptide (100 µg) on the antitumor activity of G4-TNF (100 pg) (5–6 mice/group). The arrows indicate the time of treatment. *P < 0.05; **P < 0.01, by Mann–Whitney analysis of the area under the curve for each tumor, with the GraphPad Prism software (mean ± SEM)
A) Mice bearing subcutaneous WEHI-164 tumors (6 mice/groups), were treated 5-6 days after tumor implantation with a single intraperitoneal injection of murine NGR-TNF (0, 25, 50, or 100 pg). Tumor volume and body weight after treatment were monitored daily.
B) Effect of murine TNF (50 pg) on tumor growth and body weight. The arrows indicate the time of treatment (mean ± SEM).

[2] = tested on: rCD13 (His-tagged recombinant human CD13); assay: rCD13 (2 µg/mL) in 60 mM Tris-HCl, pH 7.4; conditions: 37°C, up to 16 h
[3] = molecular target: T1, recombinant human CD13 (rCD13) (Homo sapiens, UniProt P15144); assay: rCD13 enzyme inhibition assay, L-alanine 7-amido-4-methylcoumarin substrate; assay type: biochemical
T1 construct: consisting of the CD13 extracellular domain expressed in HEK-293 cells; His-tag; purchased Sino Biological 10051-H08H; host or cells: HEK-293 cells
T1 sequence (P15144 33-967 limits assumed): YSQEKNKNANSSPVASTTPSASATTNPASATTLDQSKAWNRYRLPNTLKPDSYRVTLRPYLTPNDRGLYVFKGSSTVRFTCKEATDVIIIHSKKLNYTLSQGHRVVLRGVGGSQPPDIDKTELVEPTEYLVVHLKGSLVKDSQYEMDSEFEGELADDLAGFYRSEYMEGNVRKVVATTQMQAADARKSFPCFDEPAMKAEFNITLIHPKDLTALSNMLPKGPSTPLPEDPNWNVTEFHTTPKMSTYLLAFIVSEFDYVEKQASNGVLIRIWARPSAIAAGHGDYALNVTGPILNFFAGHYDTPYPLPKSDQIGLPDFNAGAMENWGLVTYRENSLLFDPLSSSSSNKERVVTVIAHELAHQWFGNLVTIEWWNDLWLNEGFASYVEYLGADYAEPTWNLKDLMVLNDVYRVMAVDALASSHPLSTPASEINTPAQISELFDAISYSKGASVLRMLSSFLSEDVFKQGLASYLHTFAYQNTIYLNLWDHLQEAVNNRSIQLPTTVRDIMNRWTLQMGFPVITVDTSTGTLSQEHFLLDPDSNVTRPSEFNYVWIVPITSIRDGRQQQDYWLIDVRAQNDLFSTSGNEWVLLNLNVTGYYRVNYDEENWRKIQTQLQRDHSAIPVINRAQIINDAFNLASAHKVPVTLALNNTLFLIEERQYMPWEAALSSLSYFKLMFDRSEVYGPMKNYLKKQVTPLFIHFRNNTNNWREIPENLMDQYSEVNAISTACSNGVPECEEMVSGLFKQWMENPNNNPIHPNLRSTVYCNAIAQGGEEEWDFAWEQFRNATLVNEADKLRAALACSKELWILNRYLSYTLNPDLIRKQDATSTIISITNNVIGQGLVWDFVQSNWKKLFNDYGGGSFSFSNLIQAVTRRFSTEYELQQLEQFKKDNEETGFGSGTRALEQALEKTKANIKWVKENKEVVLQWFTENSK
Procedure: Recombinant CD13 (rCD13) enzyme activity and inhibition assays were performed as described previously using L-alanine-p-nitroanilide or L-alanine 7-amido-4-methylcoumarin as substrates in 60 mM Tris–HCl, pH 7.4, or 60 mM potassium phosphate buffer, pH 7.4. Mixtures containing peptides at various concentrations, rCD13 (0.2 µg/mL), and L-alanine-p-nitroanilide substrate (0.5 mM) in 60 mM potassium phosphate buffer, pH 7.4 (total volume, 0.1 ml) were prepared and left to react for 30 min at 37 °C. The products were then analyzed using a plate reader (iMark Microplate Absorbance Reader; Bio-Rad). Alternatively, the assay was performed using 0.1 mM L-alanine 7-amido-4-methylcoumarin in 60 mM Tris–HCl, pH 7.4, as a substrate. Fluorescence intensity of methylcoumarin was measured on an Infinite 200 PRO plate reader (Tecan) using the following settings: excitation wavelength: 341 nm; emission wavelength: 441 nm; excitation bandwidth: 9; emission bandwidth: 20 nm; gain: 109 manual; number of flashes: 25; integration time: 20 µs; lag time: 0 µs; settle time: 0 ms.
The IC50 of each inhibitor was calculated by non-linear regression analysis of inhibition data using GraphPad Prism Software (GraphPad Software, Version 9.00, San Diego, CA). Steady-state enzyme kinetic analyses were performed using various concentrations of L-alanine-p-nitroanilide (0–1.5 mM) and VGCARRYCS peptide (0–900 nM). The initial velocities (Vo) were calculated from the slopes of the first 5 min of reaction. The enzyme inhibitory constant (Ki) was calculated using the competitive enzyme inhibition model in GraphPad Prism Software.
Fig. 2 G4 recognizes soluble forms of CD13, with higher affinity and selectivity than bestatin, and the membrane forms expressed on the surface of HUVEC cells. A Inhibitory effects of G4 and bestatin on the enzymatic activities of different aminopeptidases (rCD13, APA, and APB). Various amounts of G4 or bestatin were incubated with rCD13 (0.2 µg/mL in 60 mM Tris–HCl pH 7.4), APA (0.2 µg/mL in 60 mM Tris–HCl pH 7.4, 50 mM calcium chloride, 200 mM sodium chloride) or APB (0.2 µg/mL in 60 mM Tris–HCl pH 7.4, 100 mM potassium chloride) and the corresponding substrates at 0.1 mM (L-alanine-7-amido-4-methylcoumarin for rCD13, L-glutamic acid γ-(7-amido-4-methylcoumarin) for APA, and L-arginine-7-amido-4-methylcoumarin for APB). The mixtures were incubated for 30 min at 37 °C, and the cleavage of each substrate was monitored by measuring the fluorescence of methylcoumarin (λex 341 nm; λem 441 nm) using an Infinite 200 PRO plate reader (Tecan). Three independent experiments were performed for each enzyme. The results of one representative experiment for each enzyme are shown (mean ± SEM, duplicates). B Inhibitory effects of G4 and bestatin on soluble CD13 immunocaptured from human serum (sCD13) using microtiter plates coated with anti-CD13 mAb WM15. The microtiter plate was filled with a solution of mAb WM15 (5 μg/ml in DPBS) and incubated overnight at 4 °C. The plate was then washed with DPBS, blocked with 3% bovine serum albumin (BSA) in DPBS, and filled with human serum containing soluble CD13 (diluted 1:2 with DPBS containing 2% BSA). After washing with DPBS, mixtures of G4 or bestatin (0–100 µM in 60 mM Tris–HCl, pH 7.4) and L-alanine p-nitroanilide hydrochloride substrate (4.5 mM in 60 mM Tris–HCl, pH 7.4) were added and left to incubate at 37 °C for 2 h. Substrate cleavage by sCD13 dissociated from mAb WM15 was then monitored by measuring the absorbance at 405 nm in each well using a plate reader (Bio-Rad). The results of one experiment performed in triplicate are shown (mean ± SEM). C Effect of G4 on the binding of the anti-CD13 mAb WM15 to HUVEC. HUVEC were seeded at a density of 2 × 10^5 cells in 100 µL DPBS supplemented with 5% normal human serum (NHS) and incubated with a mixture of G4 peptide (0, 0.1, 1, and 10 µM) and mAb WM15 (0 or 0.13 nM) as indicated. […]

[4] = tested on: rCD13; assay: Proteolytic effect of rCD13 on peptide G4 (mass spectrometry); assay type: in vitro ADME, human; conditions: G4 Lot #B 10 mM in 60 mM Tris-HCl pH 7.4; rCD13 0, 0.2, 2 µg/mL; 0, 0.5, 16 h; 37 °C; high resolution mass spectrometry
Procedure: Peptide G4 (Lot #B, synthetized and analyzed in-house) (10 mM, in 60 mM Tris-HCl, pH 7.4) was incubated with various amounts of rCD13 (0, 0.2 and 2 µg/mL) for 0, 0.5 and 16 h, as indicated, at 37°C. The enzyme activity was stopped by adding 10% acetic acid. Each sample was then desalted using Zip-tip C18 columns (Merck Millipore), dried in a SAVANT centrifuge, resuspended in 8 µl of 10% formic acid, and analyzed by high resolution mass spectrometry, using a Q-Exactive mass spectrometer (Thermo Scientific, Bremen, Germany) equipped with a nano-electrospray ion source (Proxeon Biosystems). Full scan spectra were acquired with the resolution set to 70000 and mass range from 300 to 1500 m/z. The mass spectra were deconvoluted using the Xtract option within the QualBrowser application of the Thermo Xcalibur software v.4.2.47.

[5] = molecular target: T2, His-tagged recombinant human CD13 (rCD13) (human, UniProt P15144 33-967); assay: steady-state enzyme inhibition kinetics; rCD13 with L-alanine-p-nitroanilide (0-1.5 mM) and … (0-900 nM), 60 mM potassium phosphate buffer, pH 7.4, 37 °C; initial velocities of the first 5 min; competitive enzyme inhibition model (GraphPad Prism); conditions: both partners purified
T2 construct: aminopeptidase N / CD13, human, extracellular domain (soluble ectodomain); also called recombinant soluble CD13; recombinant CD13 ectodomain; source: bought: Sino Biological (cat. 10051-H08H), expressed in HEK-293 cells
T2 sequence (P15144 33-967): as the sequence (P15144 33-967 limits assumed) above

[6] = molecular target: His-tagged recombinant human CD13 (rCD13) (human) (UniProt P15144)
Sequence of His-tagged recombinant human CD13 (rCD13) (human) (P15144 33-967): as the sequence (P15144 33-967 limits assumed) above

Molecule: CNGRC [reference compound]
- Effect on the antitumor activity of G4-TNF ([1]; G4-TNF 100 pg i.p. with mAb R3-63 25 µg (1.5 h before) or CNGRC 100 µg): markedly reduced (almost completely)

Molecule: VGCARRYCS
- cleaved bond [2]: Val1-Gly2, 16 h; also recorded: Gly2-Cys3, 16 h

Molecule: CC(C)[C@H](N)C(=O)NCC(=O)N[C@H]1CSSC[C@@H](C(=O)N[C@@H](CO)C(=O)O)NC(=O)[C@H](Cc2ccc(O)cc2)NC(=O)[C@H](CCCNC(=N)N)NC(=O)[C@H](CCCNC(=N)N)NC(=O)[C@H](C)NC1=O [G4] (H-VGCARRYCS-OH; disulfide 3-8)
- IC50 ([3]; 0.1 mM L-alanine 7-amido-4-methylcoumarin, 60 mM Tris-HCl pH 7.4, fluorescence, mean ± SEM of n independent experiments, read-out: IC50: peptide concentration that inhibits 50% of rCD13 enzymatic activity): 130 ± 20 nM
- IC50 of G4 for rCD13 lower than that of bestatin ([3]; Fig. 2A): 4–5 fold
- Cleavage of the peptide by rCD13 (stability) [4]: cleavage of Val-1 and Gly-2 was observed only after a long incubation time (16 h) with a large amount of enzyme (2 µg/ml)

B1: peptide VGCARRYCS (disulfide-bridged, called G4) (peptide)
peptide: VGCARRYCS
modifications: disulfide 3-8 (inferred)
notes: optimised CD13 ligand peptide; also called free G4 peptide; source: synthetic peptide
- Ki [5]: 21 nM and ~22 nM

B2: TNF: murine TNF (not linked to G4) (protein)
chain: MSTESMIRDVELAEEALPQKMGGFQNSRRCLCLSLFSFLLVAGATTLFCLLNFGVIGPQRDEKFPNGLPLISSMAQTLTLRSSSQNSSDKPVAHVVANHQVEEQLEWLSQRANALLANGMDLKDNQLVVPADGLYLVYSQVLFKGQGCPDYVLLTHTVSRFAISYQEKVNLLSAVKSPCPKDTPEGAELKPWYEPIYLGGVFQLEKGDQLSAEVNLPKYLDFAESGQVYFGVIAL
- Antitumor effect (tumor growth) ([1]; single intraperitoneal injection of 50 pg): totally inactive

Molecule: VGCGRRYCSN (disulfide 3-8 (inferred)) [peptide … (disulfide-bridged)]
- IC50 of inhibition of rCD13 enzymatic activity (L-alanine-p-nitroanilide substrate) [6]: 2010 nM
